Measurements as given in US12702131B2, “Synergistic agrochemical combination” (UPL LIMITED, priority 2020, dated 2026).

Key:
Type in all cases: in vivo
Conditions in all cases: Glufosinate 3000 ml/ha, Triacontanol 500 ml/ha
[1] = system: PANRP (Brachiaria reptans); assay: Field trial, weed control in papaya orchard, PANRP
Description: (§1) Field trials were carried out to test the synergy of the combination Glufosinate and Triacontanol. The field trials were carried out at Murari, A.P. The percentage efficacy was calculated after 15, 25 and 30 days of applications. The application was in the open space among the plants in a Papaya orchard and the results are recorded in the table below:—

[2] = system: TRTPO (Trianthema portulacastrum); assay: Field trial, weed control in papaya orchard, TRTPO
Description: as §1
(§2) TRTPO—Trianthema portulacastrum, COMBE—Commelina benghalensis, AMASP—Amaranthus spinosus, PTNHY—Parthenium hysterophorus, 1CRGG—Corchorus, DIMRE—Dinebra retroflexa, CYNDH—Cynodon dactylon, CYPRO—Cyperus rotundus, EPHHL—Euphorbia heterophylla

[3] = system: COMBE (Commelina benghalensis); assay: Field trial, weed control in papaya orchard, COMBE
Description: as §1, §2

[4] = system: AMASP (Amaranthus spinosus); assay: Field trial, weed control in papaya orchard, AMASP
Description: as §1, §2

[5] = system: PTNHY (Parthenium hysterophorus); assay: Field trial, weed control in papaya orchard, PTNHY
Description: as §1, §2

[6] = system: 1CRGG (Corchorus); assay: Field trial, weed control in papaya orchard, 1CRGG
Description: as §1, §2

[7] = system: DIMRE (Dinebra retroflexa); assay: Field trial, weed control in papaya orchard, DIMRE
Description: as §1, §2

[8] = system: CYNDH (Cynodon dactylon); assay: Field trial, weed control in papaya orchard, CYNDH
Description: as §1, §2

[9] = system: CYPRO (Cyperus rotundus); assay: Field trial, weed control in papaya orchard, CYPRO
Description: as §1, §2

[10] = system: EPHHL (Euphorbia heterophylla); assay: Field trial, weed control in papaya orchard, EPHHL
Description: as §1, §2

For `CP(=O)(O)CCC(N)C(=O)O` (centres unmarked) [Glufosinate], the “% Weed control at 15 DAA” value ([1]; 15 DAA) was 85%, the “% Weed control at 25 DAA” value ([1]; 25 DAA) was 65% and the “% Weed control at 30 DAA TRTPO” value [2] was 81%. The “% Weed control at 30 DAA COMBE” value [3] was 47%, the “% Weed control at 30 DAA AMASP” value [4] was 73% and the “% Weed control at 30 DAA PTNHY” value [5] was 96%. The “% Weed control at 30 DAA 1CRGG” value [6] was 69%, the “% Weed control at 30 DAA DIMRE” value [7] was 62% and the “% Weed control at 30 DAA CYNDH” value [8] was 54%. The “% Weed control at 30 DAA CYPRO” value [9] was 11% and the “% Weed control at 30 DAA EPHHL” value [10] was 80%.
